Test results from US9206219B2, “17-hydroxy-17-pentafluorethyl-estra-4,9(10)-dien-11-aryl derivatives, methods for the production thereof and the use thereof for treating diseases” (Bayer Intellectual Property GmbH, priority 2009, dated 2015).

Key:
[1] = biological target: T1, human progesterone receptor A (Homo sapiens, UniProt P06401); test: Progesterone receptor-antagonistic action in stably transfected SK-N-MC cells, MMTV-LUC reporter (PR-A); type: cell-based; conditions: antagonistic potency vs 0.1 nmol/l promegestone, 24 hours
T1 construct: expressed in transfected cells; host or cells: SK-N-MC human neuroblastoma cells, stably transfected with pRChPR-A-neo and pMMTV-LUC
T1 sequence (P06401 1-769 isoform P06401-2): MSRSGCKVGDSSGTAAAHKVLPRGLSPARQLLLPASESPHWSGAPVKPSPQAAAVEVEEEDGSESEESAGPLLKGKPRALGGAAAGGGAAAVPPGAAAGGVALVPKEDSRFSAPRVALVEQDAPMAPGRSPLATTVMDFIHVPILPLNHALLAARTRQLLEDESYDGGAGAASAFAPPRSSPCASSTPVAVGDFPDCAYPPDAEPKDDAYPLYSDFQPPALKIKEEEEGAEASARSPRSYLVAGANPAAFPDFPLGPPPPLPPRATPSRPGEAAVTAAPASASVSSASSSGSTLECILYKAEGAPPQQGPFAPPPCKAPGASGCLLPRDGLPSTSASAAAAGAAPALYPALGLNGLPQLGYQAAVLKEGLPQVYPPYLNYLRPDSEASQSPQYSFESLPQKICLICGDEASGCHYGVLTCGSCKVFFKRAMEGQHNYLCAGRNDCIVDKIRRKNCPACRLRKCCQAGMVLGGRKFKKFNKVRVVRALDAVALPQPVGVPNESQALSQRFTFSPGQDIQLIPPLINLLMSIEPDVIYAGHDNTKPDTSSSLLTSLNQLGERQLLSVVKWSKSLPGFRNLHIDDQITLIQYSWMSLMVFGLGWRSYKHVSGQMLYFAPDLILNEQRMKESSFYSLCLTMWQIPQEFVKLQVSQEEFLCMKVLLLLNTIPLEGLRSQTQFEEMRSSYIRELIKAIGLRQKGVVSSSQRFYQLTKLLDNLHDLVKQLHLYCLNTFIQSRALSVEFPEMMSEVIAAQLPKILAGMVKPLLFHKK
Method in brief: (§1)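 Stably transfected SK-N-MC cells express human PR-B or PR-A plus MMTV-LUC. For antagonism they were co-treated with 0.1 nmol/l promegestone and compound (0.01 nmol/l upward) for 24 hours. Luciferase in lysates was read as RLU and reported as % efficacy and IC50.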

[2] = Metabolic stability in rat liver microsomes; type: in vitro ADME; conditions: calculated from liver microsome clearance
Experimental: (§2) Determination of Metabolic Stability in Human and Rat Liver Microsomes
(§3) The incubations were conducted with 2.4 ml of HLM solution (protein content 0.5 mg/ml), 30 μl of the test compound (final concentration 1 μM) and 0.6 ml of the cofactor mixture (=NADPH-generating system composed of 3 IU glucose-6-phosphate dehydrogenase, 14.6 mg glucose-6-phosphate, 1.2 mg NADP) at 37° C. in 100 mM phosphate buffer at pH 7.4. Samples were taken at 6 time points (2-60 min) and precipitated with an equal volume of methanol, and the recovery of the test substances used in the supernatant was determined by LC-MS/MS analysis. The half-life of substance degradation determined therefrom was used to calculate what is called the intrinsic clearance of the substance in the liver microsome preparation. […] In addition, under the assumptions that (i) absorption of the test substance is 100%, and (ii) the first pass is completely reflected by liver microsome metabolism, a maximum oral bioavailability (Fmax) was calculated.

[3] = biological target: T2, human progesterone receptor B (Homo sapiens, UniProt P06401); test: Progesterone receptor-antagonistic action in stably transfected SK-N-MC cells, MMTV-LUC reporter (PR-B); type: cell-based; conditions: antagonistic potency vs 0.1 nmol/l promegestone, 24 hours
T2 construct: expressed in transfected cells; host or cells: SK-N-MC human neuroblastoma cells, stably transfected with pRChPR-B-neo and pMMTV-LUC
T2 sequence (P06401 1-933): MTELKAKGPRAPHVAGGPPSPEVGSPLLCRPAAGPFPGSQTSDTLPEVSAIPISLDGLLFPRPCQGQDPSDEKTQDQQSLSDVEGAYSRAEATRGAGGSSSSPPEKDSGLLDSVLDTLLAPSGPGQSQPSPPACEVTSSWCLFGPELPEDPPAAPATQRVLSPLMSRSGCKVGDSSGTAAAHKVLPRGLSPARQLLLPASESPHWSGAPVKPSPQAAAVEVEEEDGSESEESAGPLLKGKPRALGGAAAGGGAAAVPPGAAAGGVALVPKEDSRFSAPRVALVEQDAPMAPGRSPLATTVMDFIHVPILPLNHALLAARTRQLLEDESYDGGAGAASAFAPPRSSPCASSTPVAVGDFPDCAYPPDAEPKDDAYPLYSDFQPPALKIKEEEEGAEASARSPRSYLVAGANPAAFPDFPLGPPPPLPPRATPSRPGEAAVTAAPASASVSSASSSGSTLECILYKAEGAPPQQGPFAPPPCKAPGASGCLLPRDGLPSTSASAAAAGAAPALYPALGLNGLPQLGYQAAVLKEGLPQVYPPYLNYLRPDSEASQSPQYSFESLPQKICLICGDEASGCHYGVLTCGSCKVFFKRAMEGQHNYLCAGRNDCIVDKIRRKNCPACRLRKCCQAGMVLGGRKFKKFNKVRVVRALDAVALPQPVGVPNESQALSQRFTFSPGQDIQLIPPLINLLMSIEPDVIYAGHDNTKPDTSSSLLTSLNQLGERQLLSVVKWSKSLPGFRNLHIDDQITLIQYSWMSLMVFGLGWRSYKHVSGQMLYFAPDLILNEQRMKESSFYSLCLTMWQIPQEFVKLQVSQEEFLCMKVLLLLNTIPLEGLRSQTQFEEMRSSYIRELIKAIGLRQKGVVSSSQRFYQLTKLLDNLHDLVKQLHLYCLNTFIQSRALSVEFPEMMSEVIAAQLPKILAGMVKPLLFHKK
Method in brief: as §1

[4] = Metabolic stability in human liver microsomes; type: in vitro ADME; conditions: calculated from liver microsome clearance
Experimental: as §2
Isolated human liver microsomes (HLM) were used to assess the metabolic stability of compounds of general formula I.
as §3

C[C@]12C[C@H](c3ccc(CCc4ccncc4)cc3)C3=C4CCC(=O)C=C4CC[C@H]3[C@@H]1CC[C@@]2(O)C(F)(F)C(F)(F)F [Example 8, (8S,11R,13S,14S,17S)-17-hydroxy-13-methyl-17-pentafluoroethyl-11-[4-(2-pyridin-4-ylethyl)phenyl]-1,2,6,7,8,11,12,13,14,15,16,17-dodecahydrocyclopenta[a]phenanthren-3-one]
IC50 [1]: 0.08 nM | Predicted Fmax (maximum oral bioavailability) [2]: 19% | IC50 [3]: 0.09 nM

C[C@]12C[C@H](c3ccc(CCc4cccnc4)cc3)C3=C4CCC(=O)C=C4CC[C@H]3[C@@H]1CC[C@@]2(O)C(F)(F)C(F)(F)F [Example 7, (8S,11R,13S,14S,17S)-17-hydroxy-13-methyl-17-pentafluoroethyl-11-[4-(2-pyridin-3-ylethyl)phenyl]-1,2,6,7,8,11,12,13,14,15,16,17-dodecahydrocyclopenta[a]phenanthren-3-one]
IC50 [1]: 0.08 nM | Predicted Fmax (maximum oral bioavailability) [2]: 20% | IC50 [3]: 0.09 nM

CC1(C)OCC(C)(c2ccc([C@H]3C[C@@]4(C)[C@@H](CC[C@@]4(O)C(F)(F)C(F)(F)F)[C@@H]4CCC5=CC(=O)CCC5=C43)cc2)CO1 [Example 15B, (8S,11R,13S,14S,17S)-17-hydroxy-13-methyl-17-pentafluoroethyl-11-[4-(2,2,5-trimethyl-[1,3]dioxan-5-yl)phenyl]-1,2,6,7,8,11,12,13,14,15,16,17-dodecahydrocyclopenta[a]phenanthren-3-one]
IC50 [1]: 0.01 nM | Predicted Fmax (maximum oral bioavailability) [4]: 5.0% | Predicted Fmax (maximum oral bioavailability) [2]: 4.7% | IC50 [3]: 0.01 nM

CC(C)(O)c1ccc([C@H]2C[C@@]3(C)[C@@H](CC[C@@]3(O)C(F)(F)C(F)(F)F)[C@@H]3CCC4=CC(=O)CCC4=C32)cc1 [Example 5, (8S,11R,13S,14S,17S)-17-hydroxy-11-[4-(1-hydroxy-1-methylethyl)phenyl]-13-methyl-17-pentafluoroethyl-1,2,6,7,8,11,12,13,14,15,16,17-dodecahydrocyclopenta[a]phenanthren-3-one]
IC50 [1]: 0.016 nM | Predicted Fmax (maximum oral bioavailability) [4]: 44% | Predicted Fmax (maximum oral bioavailability) [2]: 52% | IC50 [3]: 0.09 nM

CCNC(=O)NCc1ccc([C@H]2C[C@@]3(C)C(CC[C@@]3(O)C(F)(F)C(F)(F)F)C3CCC4=CC(=O)CCC4=C32)cc1 (stereo partly drawn) [Example 17, 1-ethyl-3-[4-((8S,11R,13S,14S,17S)-17-hydroxy-13-methyl-3-oxo-17-pentafluoroethyl-2,3,6,7,8,11,12,13,14,15,16,17-dodecahydro-M-cyclopenta[a]phenanthren-11-yl)benzyl]urea]
IC50 [1]: 0.4 nM | Predicted Fmax (maximum oral bioavailability) [2]: 63% | IC50 [3]: 0.8 nM

C[C@]12C[C@H](c3ccc(CNC(=O)Nc4ccccc4)cc3)C3=C4CCC(=O)C=C4CC[C@H]3[C@@H]1CC[C@@]2(O)C(F)(F)C(F)(F)F [Example 24, 1-[4-((8S,11R,13S,14S,17S)-17-hydroxy-13-methyl-3-oxo-17-pentafluoroethyl-2,3,6,7,8,11,12,13,14,15,16,17-dodecahydro-1H-cyclopenta[a]phenanthren-11-yl)benzyl]-3-phenyl urea]
IC50 [1]: 0.4 nM | Predicted Fmax (maximum oral bioavailability) [2]: 77% | IC50 [3]: 0.5 nM

CC(CO)(CO)c1ccc([C@H]2C[C@@]3(C)[C@@H](CC[C@@]3(O)C(F)(F)C(F)(F)F)[C@@H]3CCC4=CC(=O)CCC4=C32)cc1 [Example 15A, (8S,11R,13S,14S,17S)-17-hydroxy-11-[4-(2-hydroxy-1-hydroxymethyl-1-methylethyl)phenyl]-13-methyl-17-pentafluoroethyl-1,2,6,7,8,11,12,13,14,15,16,17-dodecahydrocyclopenta[a]phenanthren-3-one]
IC50 [1]: 0.09 nM | Predicted Fmax (maximum oral bioavailability) [4]: 8.5% | Predicted Fmax (maximum oral bioavailability) [2]: 59% | IC50 [3]: 0.1 nM

Cc1nc(CCc2ccc([C@H]3C[C@@]4(C)[C@@H](CC[C@@]4(O)C(F)(F)C(F)(F)F)[C@@H]4CCC5=CC(=O)CCC5=C43)cc2)cs1 [Example 3, (8S,11R,13S,14S,17S)-17-hydroxy-13-methyl-11-{4-[2-(2-methylthiazol-4-yl)ethyl]phenyl}-17-pentafluoroethyl-1,2,6,7,8,11,12,13,14,15,16,17-dodecahydrocyclopenta[a]phenanthren-3-one]
IC50 [1]: 0.09 nM | Predicted Fmax (maximum oral bioavailability) [2]: 15% | IC50 [3]: 0.04 nM

C[C@]12C[C@H](c3ccc(CCc4ccccn4)cc3)C3=C4CCC(=O)C=C4CC[C@H]3[C@@H]1CC[C@@]2(O)C(F)(F)C(F)(F)F [Example 2, (8S,11R,13S,14S,17S)-17-hydroxy-13-methyl-17-pentafluoroethyl-11-[4-(2-pyridin-2-ylethyl)phenyl]-1,2,6,7,8,11,12,13,14,15,16,17-dodecahydrocyclopenta[a]phenanthren-3-one]
IC50 [1]: 0.095 nM | Predicted Fmax (maximum oral bioavailability) [2]: 18% | IC50 [3]: 0.11 nM

C[C@]12C[C@H](c3ccc(CCC#N)cc3)C3=C4CCC(=O)C=C4CC[C@H]3[C@@H]1CC[C@@]2(O)C(F)(F)C(F)(F)F [Example 9, 3-[4-((8S,11R,13S,14S,17S)-17-hydroxy-13-methyl-3-oxo-17-pentafluoroethyl-2,3,6,7,8,11,12,13,14,15,16,17-dodecahydro-1H-cyclopenta[a]phenanthren-11-yl)phenyl]propionitrile]
IC50 [1]: 0.06 nM | Predicted Fmax (maximum oral bioavailability) [2]: 4.9% | IC50 [3]: 0.1 nM

C[C@]12C[C@H](c3ccc(CNC(=O)NCc4ccccc4)cc3)C3=C4CCC(=O)C=C4CC[C@H]3[C@@H]1CC[C@@]2(O)C(F)(F)C(F)(F)F [Example 23, 1-benzyl-3-[4-((8S,11R,13S,14S,17S)-17-hydroxy-13-methyl-3-oxo-17-pentafluoroethyl-2,3,6,7,8,11,12,13,14,15,16,17-dodecahydro-1H-cyclopenta[a]phenanthren-11-yl)benzyl]urea]
IC50 [1]: 0.3 nM | Predicted Fmax (maximum oral bioavailability) [2]: 29% | IC50 [3]: 0.8 nM

CCNC(=O)OCc1ccc([C@H]2C[C@@]3(C)[C@@H](CC[C@@]3(O)C(F)(F)C(F)(F)F)[C@@H]3CCC4=CC(=O)CCC4=C32)cc1 [Example 41, ethylcarbamic acid 4-((8S,11R,13S,14S,17S)-17-hydroxy-13-methyl-3-oxo-17-pentafluoroethyl-2,3,6,7,8,11,12,13,14,15,16,17-dodecahydro-1H-cyclopenta[a]phenanthren-11-yl)benzyl ester]
IC50 [1]: 0.09 nM | Predicted Fmax (maximum oral bioavailability) [2]: 49% | IC50 [3]: 0.1 nM
